Measurements: patent US20230174556A1, “COMPOUNDS AS PROTEIN KINASE INHIBITORS” (Fochon Biosciences, Ltd., priority 2020, published 2023)

System: OCI-LY10 (PI3Kδ dependent) cells
Test: OCI-LY10 cell proliferation assay (MTS)
Type: cell-based
Details: Homo sapiens, OCI-Ly10, 72 h, inhibition of OCI-LY10 cells proliferation, 72 h incubation, MTS readout at 490 nm
Protocol: MTS testing kit was purchased from Promega (Madison, WI, USA). The RPMI-1640, Fetal bovine serum and Penicillin-Streptomycin were purchased from BI (Biological Industries, Beit Haemek, Israel). Dimethyl sulfoxide (DMSO) was purchased from Sigma (St. Louis., MO, USA). OCI-LY10 cells were cultured in RPMI1640 supplemented with Penicillin-Streptomycin and 10% FBS.
To investigate whether a compound is able to inhibit the activity of PI3Kδ in cells, a mechanism-based assay using OCI-LY10 (PI3Kδ dependent) cells was developed. In this assay, inhibition of PI3Kδ was detected by the inhibition of OCI-LY10 cells proliferation. Cells were plated into 96-well plates at a density of 10000 cells/well. Plates were incubated at 37° C., with 5 % CO2 for 4 h. Compounds were serially diluted and added to the plates with the final compound concentrations as 10000, 3333.3, 1111.1, […], 123.5, 41.2, 13.7, 4.6 and 1.5 nM. Plates were incubated at 37° C., with 5 % CO2 for 72 h. 20 µl MTS was added into each well and the plates were incubated at 37° C., with 5 % CO2 for exactly 2 h. The absorbance was measured by a microplate reader at 490 nm. IC50 was calculated using GraphPad Prism 5.0 software.

| Compound | IC50 |
| --- | --- |
| Cc1csc2nc([C@H](C)n3nc(-c4cnc(OC(C)C)c(C#N)c4)c4c(N)ncnc43)c(-c3cccc(F)c3)c(=O)n12 [Example 100] | 1 nM |
| COc1ccc(-c2nn([C@@H](C)c3cc4scc(Cl)n4c(=O)c3-c3cccc(F)c3)c3ncnc(N)c23)cc1NS(C)(=O)=O [Example 45, (S)-N-(5-(4-amino-1-(1-(3-chloro-6-(3-fluorophenyl)-5-oxo-5H-thiazolo[3,2-a]pyridin-7-yl)ethyl)-1H-pyrazolo[3,4-d]pyrimidin-3-yl)-2-methoxyphenyl)m ethanesulfonamide] | 41 nM |

Results, then the compound that gave them:

| IC50 | Compound |
| --- | --- |
| 64 nM | COc1ncc(-c2nn([C@@H](C)c3cc4scc(Cl)n4c(=O)c3-c3cccc(F)c3)c3ncnc(N)c23)cn1 [Example 104, (S)-7-(1-(4-amino-3-(2-methoxypyrimidin-5-yl)-1H-pyrazolo[3,4-d]pyrimidin-1-yl)ethyl)-3-chloro-6-(3-fluorophenyl)-5H-thiazolo[3,2-a]pyridin-5-one] |
| 1 nM | Cc1csc2cc([C@H](C)n3nc(-c4ccc(OC(F)F)c(F)c4)c4c(N)ncnc43)c(-c3cccc(F)c3)c(=O)n12 [Example 14, (S)-7-(1-(4-amino-3-(4-(difluoromethoxy)-3-fluorophenyl)-1H-pyrazolo[3,4-d]pyrimidin-1-yl)ethyl)-6-(3-fluorophenyl)-3-methyl-5H-thiazolo[3,2-a]pyrid in-5-one] |
| 1 nM | CC(C)Oc1ccc(-c2nn([C@@H](C)c3cc4scc(Cl)n4c(=O)c3-c3cccc(F)c3)c3ncnc(N)c23)cc1F [Example 3, (S)-7-(1-(4-amino-3-(3-fluoro-4-isopropoxyphenyl)-1H-pyrazolo[3,4-d]pyrimidin-1-yl)ethyl)-3-chloro-6-(3-fluorophenyl)-5H-thiazolo[3,2-a]pyridin-5-one] |
| 18 nM | C[C@@H](c1cc2scc(Cl)n2c(=O)c1-c1cccc(F)c1)n1nc(-c2ccc(OC3CC3)c(F)c2)c2c(N)ncnc21 [Example 12, (S)-7-(1-(4-amino-3-(4-cyclopropoxy-3-fluorophenyl)-1H-pyrazolo[3,4-d]pyrimidin-1-yl)ethyl)-3-chloro-6-(3-fluor ophenyl)-5H-thiazolo[3,2-a]pyridin-5-one] |
| 15 nM | C[C@@H](c1cc2scc(Cl)n2c(=O)c1-c1ccccc1)n1nc(-c2ccc(OC3CC3)c(F)c2)c2c(N)ncnc21 [Example 13, (S)-7-(1-(4-amino-3-(4-cyclopropoxy-3-fluorophenyl)-1H-pyrazolo[3,4-d]pyrimidin-1-yl)ethyl)-3-chloro-6-phenyl-5H-thiazolo[3,2-a]pyridin-5-one] |
| 6 nM | Cc1csc2nc([C@H](C)n3nc(-c4ccc(OC(C)C)c(F)c4)c4c(N)ncnc43)c(-c3ccccc3)c(=O)n12 [Example 8, (S)-7-(1-(4-amino-3-(3-fluoro-4-isopropoxyphenyl)-1H-pyrazolo[3,4-d]pyrimidin-1-yl)ethyl)-3-methyl-6-phenyl-5H -thiazolo[3,2-a]pyrimidin-5-one] |
| 1 nM | Cc1csc2cc([C@H](C)n3nc(-c4ccc(OC(F)F)c(F)c4)c4c(N)ncnc43)c(-c3ccccc3)c(=O)n12 [Example 15, (S)-7-(1-(4-amino-3-(4-(difluoromethoxy)-3-fluorophenyl)-1H-pyrazolo[3,4-d]pyrimidin-1-yl)ethyl)-3-methyl-6-ph enyl-5H-thiazolo[3,2-a]pyridin-5-one] |
| 1 nM | Cc1csc2cc([C@H](C)n3nc(-c4cnc(OC(C)C)c(F)c4)c4c(N)ncnc43)c(-c3ccccc3)c(=O)n12 [Example 20, (S)-7-(1-(4-amino-3-(5-fluoro-6-isopropoxypyridin-3-yl)-1H-pyrazolo[3,4-d]pyrimidin-1-yl)ethyl)-3-methyl-6-phenyl-5H-thiazolo[3,2-a]pyridin-5-one] |

Same assay, conditions: inhibition of OCI-LY10 cells proliferation, 72 h incubation, MTS readout at 490 nm

| Compound | IC50 |
| --- | --- |
| Cc1csc2cc([C@H](C)n3nc(-c4ccc(OC(C)C)c(C#N)c4)c4c(N)ncnc43)c(-c3cccc(F)c3)c(=O)n12 [Example 83, (S)-5-(4-amino-1-(1-(6-(3-fluorophenyl)-3-methyl-5-oxo-5H-thiazolo[3,2-α]pyridin-7-yl)ethyl)-1H-pyrazolo[3,4-d]pyrimidin-3-yl)-2-isopropoxybenzonitrile] | 1 nM |
| CC(C)Oc1ncc(-c2nn([C@@H](C)c3cc4scc(Cl)n4c(=O)c3-c3cccc(F)c3)c3ncnc(N)c23)cc1C#N [Example 99, (S)-5-(4-amino-1-(1-(3-chloro-6-(3-fluorophenyl)-5-oxo-5H-thiazolo[3,2-α]pyridin-7-yl)ethyl)-1H-pyrazolo[3,4-d]pyrimidin-3-yl)-2-isopropoxynicotinoni trile] | 8 nM |
| Cc1csc2cc([C@H](C)n3nc(-c4cnc(OC(C)C)nc4)c4c(N)ncnc43)c(-c3ccccc3)c(=O)n12 [Example 88, (S)-7-(1-(4-amino-3-(2-isopropoxypyrimidin-5-yl)-1H-pyrazolo[3,4-d]pyrimidin-1-yl)ethyl)-3-methyl-6-phenyl-5H-thiazolo[3,2-α]pyridin-5-one] | 34 nM |
| (S)-N-(5-(4-amino-1-(1-(3-methyl-5-o xo-6-phenyl-5H-thiazolo[3,2-α]pyridin -7-yl)ethyl)-1H-pyrazolo[3,4-d]pyrimi din-3-yl)-2-methoxypyridin-3-yl)meth anesulfonamide [Example 76] | 1 nM |
| C[C@@H](c1cc2scc(Cl)n2c(=O)c1-c1cccc(F)c1)n1nc(-c2ccc(OC(F)F)c(F)c2)c2c(N)ncnc21 [Example 66, (S)-7-(1-(4-amino-3-(4-(difluoromethoxy)-3-fluorophenyl)-1H-pyrazolo[3,4-d]pyrimidin-1-yl)ethyl)-3-chloro-6-(3-fluorophenyl)-5H-thiazolo[3,2-α]pyrid in-5-one] | 5 nM |
| Cc1csc2nc([C@H](C)n3nc(-c4ccc(OC(C)C)c(C#N)c4)c4c(N)ncnc43)c(-c3cccc(F)c3)c(=O)n12 [Example 101, (S)-5-(4-amino-1-(1-(6-(3-fluoropheny 1)-3-methyl-5-oxo-5H-thiazolo[3,2-α]pyrimidin-7-yl)ethyl)-1H-pyrazolo[3,4-d]pyrimidin-3-yl)-2-isopropoxybenzon itrile] | 18 nM |
| Cc1csc2cc([C@H](C)n3nc(-c4cnc(OC(C)C)c(C#N)c4)c4c(N)ncnc43)c(-c3cccc(F)c3)c(=O)n12 [Example 97, (S)-5-(4-amino-1-(1-(6-(3-fluoropheny 1)-3-methyl-5-oxo-5H-thiazolo[3,2-α]pyridin-7-yl)ethyl)-1H-pyrazolo[3,4-d]pyrimidin-3-yl)-2-isopropoxynicotinoni trile] | 44 nM |
| Cc1csc2nc([C@H](C)n3nc(-c4cnc(OC(C)C)c(C#N)c4)c4c(N)ncnc43)c(-c3cccc(F)c3)c(=O)n12 [Example 106, (S)-5-(4-amino-1-(1-(6-(3-fluoropheny 1)-3-methyl-5-oxo-5H-thiazolo[3,2-α]pyrimidin-7-yl)ethyl)-1H-pyrazolo[3,4-d]pyrimidin-3-yl)-2-isopropoxynicotin onitrile] | 43 nM |
| CC(C)Oc1ccc(-c2nn([C@@H](C)c3cc4scc(Cl)n4c(=O)c3-c3ccccc3)c3ncnc(N)c23)cn1 [Example 86, (S)-7-(1-(4-amino-3-(6-isopropoxypyridin-3-yl)-1H-pyrazolo[3,4-d]pyrimidin-1-yl)ethyl)-3-chloro-6-phenyl-5H-thia zolo [3,2-α] pyridin-5-one] | 2 nM |
